Assay results from ChEMBL document CHEMBL1201862, “PubChem BioAssay data set” (2004).
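Five concentrations, 48 hours, 96-well plates. GI50 is the concentration that inhibits growth by half.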 Calls of active or inactive are those of the source. Cut-off read from the data, not from the text of the source: active = GI50 up to about 1.1 µM and inactive = higher.

Key:
Test in all cases: NCI anticancer screen, dose series, 48 h
MDA-N = system: MDA-N
PC-3 = system: PC-3
SF-268 = system: SF-268
SK-MEL-28 = system: SK-MEL-28
HT-29 = system: HT-29
RXF 393 = system: RXF 393
ACHN = system: ACHN
NCI-H522 = system: NCI-H522
OVCAR-8 = system: OVCAR-8
SW-620 = system: SW-620
UO-31 = system: UO-31
786-0 = system: 786-0
IGROV-1 = system: IGROV-1
NCI-H460 = system: NCI-H460
Hs-578T = system: Hs-578T
OVCAR-3 = system: OVCAR-3
SR = system: SR
SK-MEL-5 = system: SK-MEL-5
SN12C = system: SN12C
DLD-1 = system: DLD-1

| Structure (SMILES) | GI50 (MDA-N) | GI50 (PC-3) | GI50 (SF-268) | GI50 (SK-MEL-28) | GI50 (HT-29) | GI50 (RXF 393) | GI50 (ACHN) | GI50 (NCI-H522) | GI50 (OVCAR-8) | GI50 (SW-620) | GI50 (UO-31) | GI50 (786-0) | GI50 (IGROV-1) | GI50 (NCI-H460) | GI50 (Hs-578T) | GI50 (OVCAR-3) | GI50 (SR) | GI50 (SK-MEL-5) | GI50 (SN12C) | GI50 (DLD-1) |
| --- | --- | --- | --- | --- | --- | --- | --- | --- | --- | --- | --- | --- | --- | --- | --- | --- | --- | --- | --- | --- |
| CN1CCN(CC(=O)N2c3ccccc3Sc3cc4ccccc4cc32)CC1 | 10 µM (inactive) | 14.3 µM (inactive) | 11.6 µM (inactive) | 14.6 µM (inactive) | 4.31 µM (inactive) | 12.9 µM (inactive) | 16.4 µM (inactive) | 15 µM (inactive) | 17.5 µM (inactive) | 20.4 µM (inactive) | 13.2 µM (inactive) | 13.3 µM (inactive) | 16.5 µM (inactive) | 16 µM (inactive) | 11 µM (inactive) | 12.9 µM (inactive) | 13.9 µM (inactive) | 17.5 µM (inactive) | 12.1 µM (inactive) |  |
| COc1nc(C#CC(C)(C)C)nc(OC)n1 | 12.4 µM (inactive) | 31 µM (inactive) | 26.2 µM (inactive) | 37.2 µM (inactive) | 40 µM (inactive) | 31.9 µM (inactive) | 39 µM (inactive) | 23.9 µM (inactive) | 17.8 µM (inactive) | 25 µM (inactive) | 28.7 µM (inactive) | 23.8 µM (inactive) | 39.4 µM (inactive) | 26.8 µM (inactive) | 30.8 µM (inactive) | 28.6 µM (inactive) | 5.21 µM (inactive) | 16 µM (inactive) | 21.9 µM (inactive) |  |
| COc1ccc(Cn2c3c(cc(OS(=O)(=O)C(F)(F)F)c2=O)Cc2ccccc2-3)cc1 | 12.9 µM (inactive) | > 50 µM (inactive) | 12.8 µM (inactive) | 18.7 µM (inactive) | > 50 µM (inactive) | 29.9 µM (inactive) | 21.6 µM (inactive) | 22 µM (inactive) | 13.3 µM (inactive) | 10.3 µM (inactive) | 7.33 µM (inactive) | 4.89 µM (inactive) | 22.5 µM (inactive) | 3.56 µM (inactive) | > 50 µM (inactive) | 9.53 µM (inactive) | 4.36 µM (inactive) | 10.4 µM (inactive) | 16.9 µM (inactive) |  |
| CC(C)(C)c1cc(C(C)(C)C)c2sc(=S)oc2c1O | 6.01 µM (inactive) | 4.29 µM (inactive) | 3.4 µM (inactive) | 8.09 µM (inactive) | 14.9 µM (inactive) | 4.69 µM (inactive) | 8.53 µM (inactive) | 5.9 µM (inactive) | 6.34 µM (inactive) | 9.1 µM (inactive) | 4.12 µM (inactive) | 7.45 µM (inactive) | 9.98 µM (inactive) | 6.1 µM (inactive) | 4.43 µM (inactive) | 5.14 µM (inactive) | 3.18 µM (inactive) | 8.17 µM (inactive) | 6.14 µM (inactive) |  |
| Cc1ccc(S(=O)(=O)NC(=O)NC23CC4CC(CC(F)(C4)C2)C3)cc1 |  |  |  | > 100 µM (inactive) | > 100 µM (inactive) | > 100 µM (inactive) | > 100 µM (inactive) | > 100 µM (inactive) | > 100 µM (inactive) | > 100 µM (inactive) | > 100 µM (inactive) | > 100 µM (inactive) | > 100 µM (inactive) | > 100 µM (inactive) |  | > 100 µM (inactive) |  | > 100 µM (inactive) |  | > 100 µM (inactive) |
| CSc1c([S+](C)[O-])c2ccccc2n1C (stereo not given) | > 100 µM (inactive) | > 100 µM (inactive) | > 100 µM (inactive) | > 100 µM (inactive) | > 100 µM (inactive) | > 100 µM (inactive) | > 100 µM (inactive) | 0.0142 µM (active) | > 100 µM (inactive) | > 100 µM (inactive) | > 100 µM (inactive) | > 100 µM (inactive) | > 100 µM (inactive) | > 100 µM (inactive) | > 100 µM (inactive) | > 100 µM (inactive) | > 100 µM (inactive) | > 100 µM (inactive) | > 100 µM (inactive) |  |
| C[n+]1cccc(/C=C/c2ccc3cccc(O)c3n2)c1 | > 100 µM (inactive) | > 100 µM (inactive) | 26.9 µM (inactive) | > 100 µM (inactive) | > 100 µM (inactive) | > 100 µM (inactive) | > 100 µM (inactive) | 24.8 µM (inactive) | 72.3 µM (inactive) | > 100 µM (inactive) | > 100 µM (inactive) | > 100 µM (inactive) | > 100 µM (inactive) | 68.7 µM (inactive) | 65.5 µM (inactive) | 27 µM (inactive) | > 100 µM (inactive) | 37.1 µM (inactive) | 32.1 µM (inactive) |  |
| NS(=O)(=O)c1ccc(/N=N/c2c(O)c(C(=O)O)cc3ccccc23)cc1 | 59.2 µM (inactive) | > 100 µM (inactive) | > 100 µM (inactive) | > 93.5 µM (inactive) | > 100 µM (inactive) | > 100 µM (inactive) | > 100 µM (inactive) | > 76.7 µM (inactive) | > 100 µM (inactive) | > 92.3 µM (inactive) | > 100 µM (inactive) | > 100 µM (inactive) | > 100 µM (inactive) | > 100 µM (inactive) | > 100 µM (inactive) | > 100 µM (inactive) | 33.3 µM (inactive) | 53.8 µM (inactive) | > 100 µM (inactive) |  |
| Cc1nc(C)c(N2CCN(S(=O)(=O)N(Cc3ccccc3)Cc3ccccc3)CC2)c(O)n1 | > 100 µM (inactive) | 41.8 µM (inactive) | 6.85 µM (inactive) | > 100 µM (inactive) | > 100 µM (inactive) | 11.2 µM (inactive) | 28.6 µM (inactive) | 4.85 µM (inactive) | 4.78 µM (inactive) | > 100 µM (inactive) | > 100 µM (inactive) | 6.64 µM (inactive) | 16.8 µM (inactive) | > 46.9 µM (inactive) | 3.4 µM (inactive) | 52.8 µM (inactive) | > 100 µM (inactive) | > 100 µM (inactive) | > 100 µM (inactive) |  |
| Clc1nncc2sc(-c3ccccc3)nc12 | 21.6 µM (inactive) | 17.6 µM (inactive) | 16.3 µM (inactive) | 12.8 µM (inactive) | 20.3 µM (inactive) | 16.6 µM (inactive) | 26.9 µM (inactive) | 8.73 µM (inactive) | 20.1 µM (inactive) | 21 µM (inactive) | 19.9 µM (inactive) | 85.9 µM (inactive) | 8.67 µM (inactive) | 16.8 µM (inactive) | 20.6 µM (inactive) | 6.41 µM (inactive) | 9.82 µM (inactive) | 15.6 µM (inactive) | 21 µM (inactive) |  |
| COc1cccc(/C=N/n2c(Cc3ccc(Cl)cc3)n[nH]c2=O)c1 | > 100 µM (inactive) | 56.5 µM (inactive) | 15.9 µM (inactive) | > 100 µM (inactive) | 12.4 µM (inactive) | 2 µM (inactive) | 36.6 µM (inactive) | 14.7 µM (inactive) | 16.9 µM (inactive) | > 100 µM (inactive) | > 73.5 µM (inactive) | 25.1 µM (inactive) | 33.5 µM (inactive) | > 91.4 µM (inactive) | 23.4 µM (inactive) | > 100 µM (inactive) | > 76.9 µM (inactive) | > 100 µM (inactive) | 24.3 µM (inactive) |  |
| O=C(O)c1c2c(cc3c1CC1(Cc4cc5c(cc4C1=O)CCC5)C3)CCC2 (stereo not given) | > 100 µM (inactive) | > 100 µM (inactive) | > 100 µM (inactive) | 26.9 µM (inactive) | > 100 µM (inactive) | 92.9 µM (inactive) | 56.4 µM (inactive) | 76.4 µM (inactive) | > 100 µM (inactive) | > 100 µM (inactive) | > 100 µM (inactive) | > 100 µM (inactive) | > 100 µM (inactive) | 71.1 µM (inactive) | > 100 µM (inactive) | 56.4 µM (inactive) | 20.7 µM (inactive) | > 100 µM (inactive) | > 100 µM (inactive) |  |
| COc1cc(CC2c3cc(OC)c(OC)cc3CCN2C)ccc1O (stereo not given) |  |  | > 100 µM (inactive) | > 100 µM (inactive) | > 100 µM (inactive) |  | > 100 µM (inactive) | > 100 µM (inactive) | > 100 µM (inactive) | > 100 µM (inactive) | > 100 µM (inactive) | > 100 µM (inactive) |  | > 100 µM (inactive) |  | > 100 µM (inactive) |  | > 100 µM (inactive) | > 100 µM (inactive) | > 100 µM (inactive) |
| O=C(O)/C=C/c1ccc(OS(=O)(=O)O)cc1 | > 100 µM (inactive) | > 100 µM (inactive) | > 100 µM (inactive) | > 100 µM (inactive) | > 100 µM (inactive) | 1.49 µM (inactive) | > 100 µM (inactive) | > 100 µM (inactive) | > 100 µM (inactive) | > 100 µM (inactive) | > 100 µM (inactive) | > 100 µM (inactive) | > 100 µM (inactive) | > 100 µM (inactive) | > 100 µM (inactive) | > 100 µM (inactive) | > 100 µM (inactive) | > 100 µM (inactive) | > 100 µM (inactive) |  |
| O=[N+]([O-])O [NITRIC ACID] | > 100 µM (inactive) | > 100 µM (inactive) | > 100 µM (inactive) | > 100 µM (inactive) | > 100 µM (inactive) | > 100 µM (inactive) | > 100 µM (inactive) | > 100 µM (inactive) | > 100 µM (inactive) | > 100 µM (inactive) | > 100 µM (inactive) | > 100 µM (inactive) | > 100 µM (inactive) | > 100 µM (inactive) | > 100 µM (inactive) | > 100 µM (inactive) | 77.1 µM (inactive) | > 100 µM (inactive) | > 100 µM (inactive) |  |
